Test results taken from patent publication US9593149B2, “Amylin and calcitonin receptor agonist” (Novo Nordisk A/S, priority 2014, dated 2017).
Numbered stars: 1 amine (or outer) side, 2 acyl side, 3 side chain; on linkers, the order of the positions; unused ones are H or OH. Peptide text beside a SMILES is read from it. * marks the point of attachment. C20 diacid = O=C(O)CCCCCCCCCCCCCCCCCCC(=O)*; C18 diacid = O=C(O)CCCCCCCCCCCCCCCCC(=O)*; γGlu = O=C(O)[C@H](CCC(=O)[*:2])N[*:1]; AEEA = NCCOCCOCC(=O)O

Assay: Assay (IV) determination of solubility
Type: physicochemical
Protocol: Assay (IV)—Determination of Solubility
The mimylin peptide was dissolved in water at ˜500 nmol/ml and mixed 1:1 with a series of buffers (100 mM glycylglycine pH 3.0, 100 mM glycylglycine pH 4.0, 100 mM glycylglycine pH 5.0, 100 mM bistrispropane pH 6.0, 100 mM bistrispropane pH 6.5, 100 mM bistrispropane pH 7.0, 100 mM bistrispropane pH 7.5, 100 mM bistrispropane pH 8.0).

Measured: Solubility

CC(C)C[C@H](NC(=O)[C@H](CCC(=O)O)NC(=O)[C@H](Cc1cnc[nH]1)NC(=O)[C@H](CC(C)C)NC(=O)[C@H](CCC(=O)O)NC(=O)[C@H](C)NC(=O)[C@H](CO)NC(=O)[C@H](CC(C)C)NC(=O)[C@H](CCCNC(=N)N)NC(=O)CNC(=O)[C@H](CC(C)C)NC(=O)[C@@H](NC(=O)[C@H](C)NC(=O)[C@@H](NC(=O)[C@H](CO)NC(=O)[C@H](CC(C)C)NC(=O)[C@@H]1CCCN1C(=O)[C@@H]1CCCN1C(=O)[C@H](C)NC(=O)[C@H](CCC(=O)O)NC(=O)CCCCCCCCCCCCCCCCC(=O)O)[C@@H](C)O)C(C)C)C(=O)N[C@@H](C)C(=O)N[C@H](C(=O)N[C@@H](CC(C)C)C(=O)N1CCC[C@H]1C(=O)N[C@@H](CCCNC(=N)N)C(=O)N[C@H](C(=O)N[C@@H](CCC(=O)O)C(=O)N[C@H](C(=O)NCC(=O)N1CCC[C@H]1C(=O)N[C@@H](CCC(=O)O)C(=O)N[C@@H](CO)C(=O)N1CCC[C@H]1C(N)=O)[C@@H](C)O)[C@@H](C)O)[C@@H](C)O [compound 38, [N-terminal(C18 diacid), 3P, 4P, 9V]mimylin] ({C18 diacid}-EAPPLSTAVLGRLSAELHELATLPRTETGPESP-NH2)
≧200 μM: pH 3.0 | pH 4.0 | pH 5.0 | pH 6.0 | pH 6.5 | pH 7.0 | pH 7.5 | pH 8.0

CC(C)C[C@H](NC(=O)[C@H](CCC(=O)O)NC(=O)[C@H](Cc1cnc[nH]1)NC(=O)[C@H](CC(C)C)NC(=O)[C@H](CCC(=O)O)NC(=O)[C@H](C)NC(=O)[C@H](CO)NC(=O)[C@H](CC(C)C)NC(=O)[C@H](CCCCN)NC(=O)CNC(=O)[C@H](CC(C)C)NC(=O)[C@@H](NC(=O)[C@H](C)NC(=O)[C@@H](NC(=O)[C@H](CO)NC(=O)[C@H](CC(C)C)NC(=O)[C@H](CCC(=O)O)NC(=O)[C@H](CO)NC(=O)[C@H](C)NC(=O)[C@H](CCC(=O)O)NC(=O)CCCCCCCCCCCCCCCCC(=O)O)[C@@H](C)O)C(C)C)C(=O)N[C@@H](C)C(=O)N[C@H](C(=O)N[C@@H](CC(C)C)C(=O)N1CCC[C@H]1C(=O)N[C@@H](CCCCN)C(=O)N[C@H](C(=O)N[C@@H](CCC(=O)O)C(=O)N[C@H](C(=O)NCC(=O)N1CCC[C@H]1C(=O)N[C@@H](CCC(=O)O)C(=O)N[C@@H](CO)C(=O)N1CCC[C@H]1C(N)=O)[C@@H](C)O)[C@@H](C)O)[C@@H](C)O [compound 39, [N-terminal(C18 diacid), 9V, 12K, 25K]mimylin] ({C18 diacid}-EASELSTAVLGKLSAELHELATLPKTETGPESP-NH2)
≧200 μM: pH 3.0 | pH 4.0 | pH 5.0 | pH 6.0 | pH 6.5 | pH 7.0 | pH 7.5 | pH 8.0

CC(C)C[C@H](NC(=O)[C@H](C)NC(=O)[C@H](C)NC(=O)[C@@H](NC(=O)[C@H](CO)NC(=O)[C@H](CC(C)C)NC(=O)[C@H](CCC(=O)O)NC(=O)[C@H](CO)NC(=O)[C@H](C)NC(=O)COCCOCCNC(=O)COCCOCCNC(=O)CC[C@H](NC(=O)CCCCCCCCCCCCCCCCCCC(=O)O)C(=O)O)[C@@H](C)O)C(=O)NCC(=O)N[C@@H](CCCNC(=N)N)C(=O)N[C@@H](CC(C)C)C(=O)N[C@@H](CO)C(=O)N[C@@H](C)C(=O)N[C@@H](CCC(=O)O)C(=O)N[C@@H](CC(C)C)C(=O)N[C@@H](Cc1cnc[nH]1)C(=O)N[C@@H](CCC(=O)O)C(=O)N[C@@H](CC(C)C)C(=O)N[C@@H](C)C(=O)N[C@H](C(=O)N[C@@H](CC(C)C)C(=O)N1CCC[C@H]1C(=O)N[C@@H](CCCNC(=N)N)C(=O)N[C@H](C(=O)N[C@@H](CCC(=O)O)C(=O)N[C@H](C(=O)NCC(=O)N[C@@H](CO)C(=O)NCC(=O)N[C@@H](CO)C(=O)N1CCC[C@H]1C(N)=O)[C@@H](C)O)[C@@H](C)O)[C@@H](C)O [compound 42, [N-terminal(C20 diacid-gGlu-2xOEG), des1, 30S, 31G]mimylin] ({C20 diacid-γGlu-AEEA-AEEA}-ASELSTAALGRLSAELHELATLPRTETGSGSP-NH2)
≧200 μM: pH 3.0 | pH 4.0 | pH 5.0 | pH 6.0 | pH 6.5 | pH 7.0 | pH 7.5 | pH 8.0

CC(C)C[C@H](NC(=O)[C@H](C)NC(=O)[C@H](C)NC(=O)[C@@H](NC(=O)[C@H](CO)NC(=O)[C@H](CC(C)C)NC(=O)[C@H](CCC(=O)O)NC(=O)[C@H](CO)NC(=O)[C@H](C)NC(=O)COCCOCCNC(=O)COCCOCCNC(=O)COCCOCCNC(=O)CC[C@H](NC(=O)CCCCCCCCCCCCCCCCCCC(=O)O)C(=O)O)[C@@H](C)O)C(=O)NCC(=O)N[C@@H](CCCNC(=N)N)C(=O)N[C@@H](CC(C)C)C(=O)N[C@@H](CO)C(=O)N[C@@H](C)C(=O)N[C@@H](CCC(=O)O)C(=O)N[C@@H](CC(C)C)C(=O)N[C@@H](Cc1cnc[nH]1)C(=O)N[C@@H](CCC(=O)O)C(=O)N[C@@H](CC(C)C)C(=O)N[C@@H](C)C(=O)N[C@H](C(=O)N[C@@H](CC(C)C)C(=O)N1CCC[C@H]1C(=O)N[C@@H](CCCNC(=N)N)C(=O)N[C@H](C(=O)N[C@@H](CCC(=O)O)C(=O)N[C@H](C(=O)NCC(=O)N[C@@H](CO)C(=O)NCC(=O)N[C@@H](CO)C(=O)N1CCC[C@H]1C(N)=O)[C@@H](C)O)[C@@H](C)O)[C@@H](C)O [compound 43, [N-terminal(C20 diacid-gGlu-3xOEG), des1, 30S, 31G]mimylin] ({C20 diacid-γGlu-AEEA-AEEA-AEEA}-ASELSTAALGRLSAELHELATLPRTETGSGSP-NH2)
≧200 μM: pH 3.0 | pH 4.0 | pH 5.0 | pH 6.0 | pH 6.5 | pH 7.0 | pH 7.5 | pH 8.0

CC(C)C[C@H](NC(=O)[C@H](C)NC(=O)[C@H](C)NC(=O)[C@@H](NC(=O)[C@H](CO)NC(=O)[C@H](CC(C)C)NC(=O)[C@H](CCC(=O)O)NC(=O)[C@H](CO)NC(=O)[C@H](C)NC(=O)COCCOCCNC(=O)COCCOCCNC(=O)COCCOCCNC(=O)COCCOCCNC(=O)CC[C@H](NC(=O)CCCCCCCCCCCCCCCCCCC(=O)O)C(=O)O)[C@@H](C)O)C(=O)NCC(=O)N[C@@H](CCCNC(=N)N)C(=O)N[C@@H](CC(C)C)C(=O)N[C@@H](CO)C(=O)N[C@@H](C)C(=O)N[C@@H](CCC(=O)O)C(=O)N[C@@H](CC(C)C)C(=O)N[C@@H](Cc1cnc[nH]1)C(=O)N[C@@H](CCC(=O)O)C(=O)N[C@@H](CC(C)C)C(=O)N[C@@H](C)C(=O)N[C@H](C(=O)N[C@@H](CC(C)C)C(=O)N1CCC[C@H]1C(=O)N[C@@H](CCCNC(=N)N)C(=O)N[C@H](C(=O)N[C@@H](CCC(=O)O)C(=O)N[C@H](C(=O)NCC(=O)N[C@@H](CO)C(=O)NCC(=O)N[C@@H](CO)C(=O)N1CCC[C@H]1C(N)=O)[C@@H](C)O)[C@@H](C)O)[C@@H](C)O [compound 44, [N-terminal(C20 diacid-gGlu-4xOEG), des1, 30S, 31G]mimylin] ({C20 diacid-γGlu-AEEA-AEEA-AEEA-AEEA}-ASELSTAALGRLSAELHELATLPRTETGSGSP-NH2)
≧200 μM: pH 3.0 | pH 4.0 | pH 5.0 | pH 6.0 | pH 6.5 | pH 7.0 | pH 7.5 | pH 8.0

CC(C)C[C@H](NC(=O)[C@H](C)NC(=O)[C@H](C)NC(=O)[C@@H](NC(=O)[C@H](CO)NC(=O)[C@H](CC(C)C)NC(=O)[C@H](CCC(=O)O)NC(=O)[C@H](CO)NC(=O)[C@H](C)NC(=O)COCCOCCNC(=O)COCCOCCNC(=O)COCCOCCNC(=O)COCCOCCNC(=O)COCCOCCNC(=O)CC[C@H](NC(=O)CCCCCCCCCCCCCCCCCCC(=O)O)C(=O)O)[C@@H](C)O)C(=O)NCC(=O)N[C@@H](CCCNC(=N)N)C(=O)N[C@@H](CC(C)C)C(=O)N[C@@H](CO)C(=O)N[C@@H](C)C(=O)N[C@@H](CCC(=O)O)C(=O)N[C@@H](CC(C)C)C(=O)N[C@@H](Cc1cnc[nH]1)C(=O)N[C@@H](CCC(=O)O)C(=O)N[C@@H](CC(C)C)C(=O)N[C@@H](C)C(=O)N[C@H](C(=O)N[C@@H](CC(C)C)C(=O)N1CCC[C@H]1C(=O)N[C@@H](CCCNC(=N)N)C(=O)N[C@H](C(=O)N[C@@H](CCC(=O)O)C(=O)N[C@H](C(=O)NCC(=O)N[C@@H](CO)C(=O)NCC(=O)N[C@@H](CO)C(=O)N1CCC[C@H]1C(N)=O)[C@@H](C)O)[C@@H](C)O)[C@@H](C)O [compound 45, [N-terminal(C20 diacid-gGlu-5xOEG), des1, 30S, 31G]mimylin] ({C20 diacid-γGlu-AEEA-AEEA-AEEA-AEEA-AEEA}-ASELSTAALGRLSAELHELATLPRTETGSGSP-NH2)
≧200 μM: pH 3.0 | pH 4.0 | pH 5.0 | pH 6.0 | pH 6.5 | pH 7.0 | pH 7.5 | pH 8.0
